Data taken from patent US6753424B1, “Conjugates of DNA interacting groups with steroid hormones for use as nucleic acid transfection agents” (priority 1998, dated 2004).

Key:
[1] = system: GR-GFP chimera; assay: Nuclear Transfer Induction assay (NTI), monourethane ligands, HeLa cells; type: cell-based; settings: 1 hr
Experimental: Conditions: HeLa cells are transiently transfected by CaPO4 with an expression vector encoding a GR-GFP chimera (5 μg in transfection cocktail, 4 cm diameter dishes, DMEM with 3% FCS). After 24 hour expression, ligand is added for 1 hr and cells are fixed with formaldehyde (5 min 4° C.) and inspected by fluorescence microscopy. Fluorescent cells are counted and divided into different classes according to ‘cytoplasmic’ (C) versus ‘nuclear’ (N) localisation of fluorescence.
First column: “Conditions”: Name of compounds added (marked at top: ‘//ligand’), and their concentration (in parentheses) and assay number (01 through 21).
Values are given as percentage of cells displaying the corresponding localisatidn, within each tested condition the sum is 100%.

[2] = system: GR-GFP chimera; assay: Nuclear Transfer Induction assay (NTI), diurethane ligands, CV-1 cells; type: cell-based; settings: 4 hr
Experimental: Conditions: CV-1 cells are transiently transfected with DOTAP (Boehringer-Mannheim) with an expression vector encoding a GR-GFP chimera (see 8.1). After 36 hours expression, ligand is added for 4 hr and cells are fixed and counted as given in 8.1.

[3] = system: HUH-7 cells; assay: Transfection enhancement, CMV-LacZ reporter, HUH-7 cells; type: cell-based, human; set-up: key to net: net = (RLU:protein)×1000 − 600 (mock transfection level)
Experimental: Conditions: HUH-7 cells are human hepatoma cells that contain substantial amounts of glucocorticoid receptor. The cells are transfected with an expression vector that is constitutively expressing the reporter gene LacZ (CMV-LacZ). Transfection conditions and analysis of LacZ reporter are the same as described in Example 7 legend. Transfection is performed O/N and after rinsing of the precipitate the cells are further incubated for 24 hours. LacZ levels are determined from cell extracts with a chemiluminescence LacZ enzyme assay (Galactolight plus, Tropix). The relative luminescence from each extract is given. Each value represents an individual extract. “Induction”: relative reporter gene activity (values divided by value of assay in lane 9, true negative control for DNA liganding). rel/RLU=(RLU:protein)×1000; net=rel/RLU−600 (600=rel/RLU value approximately corresponding to rel/RLU value of mock transfection).

Row | SMILES | C < N, percentage of cells ([1]; ligand 1.10-7M) | C << N, percentage of cells ([1]; ligand 1.10-7M) | C = N, percentage of cells ([1]; ligand 1.10-7M) | C > N, percentage of cells ([1]; ligand 1.10-7M) | C >> N, percentage of cells ([1]; ligand 1.10-7M) | C < N, percentage of cells ([1]; ligand 1.10-6M) | C << N, percentage of cells ([1]; ligand 1.10-6M) | C = N, percentage of cells ([1]; ligand 1.10-6M) | C > N, percentage of cells ([1]; ligand 1.10-6M) | C >> N, percentage of cells ([1]; ligand 1.10-6M) | C < N, percentage of cells ([2]; ligand 5.10-6M) | C << N, percentage of cells ([2]; ligand 5.10-6M) | C = N, percentage of cells ([2]; ligand 5.10-6M) | C > N, percentage of cells ([2]; ligand 5.10-6M) | C >> N, percentage of cells ([2]; ligand 5.10-6M) | C < N, percentage of cells ([2]; ligand 5.10-7M) | C << N, percentage of cells ([2]; ligand 5.10-7M) | C = N, percentage of cells ([2]; ligand 5.10-7M) | C > N, percentage of cells ([2]; ligand 5.10-7M) | C >> N, percentage of cells ([2]; ligand 5.10-7M) | further results
1 | COC(=O)CCNC(=O)OCC(=O)[C@@]1(O)[C@H](C)CC2C3CCC4=CC(=O)C=CC4(C)[C@@]3(F)C(O)CC21C (stereo partly shown) [DEX-C3-COOCH3, 2-carboxymethyl-ethyl-1-carboxamicacid-dexamethasone-21-ester] | 25% | 75% | 0% | 0% | 0% | – | – | – | – | – | – | – | – | – | – | – | – | – | – | – | C < N, percentage of cells ([1]; ligand 1.10-8M): 22%; C << N, percentage of cells ([1]; ligand 1.10-8M): 78%; C = N, percentage of cells ([1]; ligand 1.10-8M): 0%; C > N, percentage of cells ([1]; ligand 1.10-8M): 0%; C >> N, percentage of cells ([1]; ligand 1.10-8M): 0%
2 | COC(=O)CCCCCCCCCCNC(=O)OCC(=O)[C@@]1(O)CCC2C3CCC4=CC(=O)CCC4(C)C3C(O)CC21C (stereo partly shown) [CL-C11-COOCH3, 10-carboxymethyl-n-decy-1-carboxamicacid-cortisol-21-ester] | 20% | 0% | 55% | 20% | 5% | 60% | 13% | 24% | 3% | 0% | – | – | – | – | – | – | – | – | – | – | –
3 | CC12CCC(=O)C=C1CCC1C2C(O)CC2(C)C1CC[C@]2(O)C(=O)COC(=O)NCCC(=O)O (stereo partly shown) [CL-C3-COOH, 2-carboxy-ethyl-1-carboxamicacid-cortisol-21-ester] | 2% | 0% | 43% | 55% | 0% | 13% | 0% | 85% | 2% | 0% | – | – | – | – | – | – | – | – | – | – | –
4 | CC1CC2C3CCC4=CC(=O)C=CC4(C)C3(F)C(O)CC2(C)C1(O)C(=O)COC(=O)NCCOC(=O)NCCCNCCCCNCCCN (stereo not shown) [DEX-C4-Sn] | – | – | – | – | – | – | – | – | – | – | 27.6% | 69.5% | 2.9% | 0% | 0% | 4.6% | 0.6% | 67.4% | 15.4% | 12% | C < N, percentage of cells ([2]; ligand 5.10-8M): 1.1%; C << N, percentage of cells ([2]; ligand 5.10-8M): 0%; C = N, percentage of cells ([2]; ligand 5.10-8M): 43.3%; C > N, percentage of cells ([2]; ligand 5.10-8M): 35.8%; C >> N, percentage of cells ([2]; ligand 5.10-8M): 19.8%; C < N, percentage of cells ([2]; ligand 5.10-9M): 0%; C << N, percentage of cells ([2]; ligand 5.10-9M): 0%; C = N, percentage of cells ([2]; ligand 5.10-9M): 28.5%; C > N, percentage of cells ([2]; ligand 5.10-9M): 43.8%; C >> N, percentage of cells ([2]; ligand 5.10-9M): 27.7%
5 | Cc1oc2c(C)c3oc(=O)cc(C)c3cc2c1CNC(=O)OCCCCCCCCCCCNC(=O)OCC(=O)[C@@]1(O)[C@H](C)CC2C3CCC4=CC(=O)C=CC4(C)[C@@]3(F)C(O)CC21C (stereo partly shown) [DEX-C11-Pso] | – | – | – | – | – | – | – | – | – | – | 53.1% | 45% | 1.9% | 0% | 0% | 14.8% | 0% | 58.3% | 25.7% | 1.3% | C < N, percentage of cells ([2]; ligand 5.10-8M): 1.9%; C << N, percentage of cells ([2]; ligand 5.10-8M): 0%; C = N, percentage of cells ([2]; ligand 5.10-8M): 52.9%; C > N, percentage of cells ([2]; ligand 5.10-8M): 37.1%; C >> N, percentage of cells ([2]; ligand 5.10-8M): 8.1%; C < N, percentage of cells ([2]; ligand 5.10-9M): 3.6%; C << N, percentage of cells ([2]; ligand 5.10-9M): 0%; C = N, percentage of cells ([2]; ligand 5.10-9M): 34.2%; C > N, percentage of cells ([2]; ligand 5.10-9M): 52.9%; C >> N, percentage of cells ([2]; ligand 5.10-9M): 9.4%
6 | COC(=O)CCCCCCCCCCNC(=O)OCC(=O)[C@@]1(O)[C@H](C)CC2C3CCC4=CC(=O)C=CC4(C)[C@@]3(F)C(O)CC21C (stereo partly shown) [DEX-C11-COOCH3, 10-carboxymethyl-n-decyl-1-carboxamicacid-dexamethasone-21-ester] | 61% | 7% | 29% | 3% | 0% | 50% | 45% | 5% | 0% | 0% | – | – | – | – | – | – | – | – | – | – | –
7 | C[C@@H]1C[C@H]2[C@@H]3CCC4=CC(=O)C=C[C@]4(C)[C@@]3(F)[C@@H](O)C[C@]2(C)[C@@]1(O)C(=O)CO [DEX, Dexamethasone, reference compound] | 30% | 67% | 3% | 0% | 0% | 29% | 71% | 0% | 0% | 0% | 0.5% | 99.5% | 0% | 0% | 0% | 1% | 99% | 0% | 0% | 0% | C < N, percentage of cells ([2]; ligand 5.10-8M): 5%; C << N, percentage of cells ([2]; ligand 5.10-8M): 95%; C = N, percentage of cells ([2]; ligand 5.10-8M): 0%; C > N, percentage of cells ([2]; ligand 5.10-8M): 0%; C >> N, percentage of cells ([2]; ligand 5.10-8M): 0%; C < N, percentage of cells ([2]; ligand 5.10-9M): 42.1%; C << N, percentage of cells ([2]; ligand 5.10-9M): 57.5%; C = N, percentage of cells ([2]; ligand 5.10-9M): 0.3%; C > N, percentage of cells ([2]; ligand 5.10-9M): 0%; C >> N, percentage of cells ([2]; ligand 5.10-9M): 0%; RLU ([3]; ligand 10-6, HUH-7): 238837; net ([3]; ligand 10-6, HUH-7): 185; rel/RLU ([3]; ligand 10-6, HUH-7): 314.7; net ([3]; ligand 10-7, HUH-7): 227; rel/RLU ([3]; ligand 10-7, HUH-7): 357.3
8 | Cc1oc2c(C)c3oc(=O)cc(C)c3cc2c1CNC(=O)OCCCCCCNC(=O)OCC(=O)[C@@]1(O)[C@H](C)CC2C3CCC4=CC(=O)C=CC4(C)[C@@]3(F)C(O)CC21C (stereo partly shown) [DEX-C6-Pso] | – | – | – | – | – | – | – | – | – | – | 10% | 90% | 0% | 0% | 0% | 6% | 94% | 0% | 0% | 0% | C < N, percentage of cells ([2]; ligand 5.10-8M): 29.4%; C << N, percentage of cells ([2]; ligand 5.10-8M): 60.8%; C = N, percentage of cells ([2]; ligand 5.10-8M): 9.8%; C > N, percentage of cells ([2]; ligand 5.10-8M): 0%; C >> N, percentage of cells ([2]; ligand 5.10-8M): 0%; C < N, percentage of cells ([2]; ligand 5.10-9M): 38.3%; C << N, percentage of cells ([2]; ligand 5.10-9M): 22.6%; C = N, percentage of cells ([2]; ligand 5.10-9M): 35.7%; C > N, percentage of cells ([2]; ligand 5.10-9M): 3.5%; C >> N, percentage of cells ([2]; ligand 5.10-9M): 0%
9 | COC(=O)CCNC(=O)OCC(=O)[C@@]1(O)CCC2C3CCC4=CC(=O)CCC4(C)C3C(O)CC21C (stereo partly shown) [CL-C3-COOCH3, 2-carboxymethyl-ethyl-1-carboxamicacid-cortisol-21-ester] | 50% | 18% | 21% | 1% | 0% | 55% | 42% | 2% | 1% | 0% | – | – | – | – | – | – | – | – | – | – | –
